Test results reported in BigSolDB 2.1.

O=[N+]([O-])c1cccc2ccccc12
solubility (mole fraction)
Conditions | 273.15 K | 278.15 K | 283.15 K | 288.15 K | 293.15 K | 298.15 K | 303.15 K | 308.15 K
in acetone | 0.145 | 0.181 | 0.232 | 0.277 | 0.344 | 0.426 | 0.508 | 0.603
in acetonitrile | 0.0535 | 0.0739 | 0.104 | 0.149 | 0.225 | 0.322 | 0.433 | 0.591
in cyclohexane | – | 0.00743 | 0.0104 | 0.0134 | 0.0177 | 0.0261 | 0.0382 | 0.0532
in dichloromethane | 0.241 | 0.283 | 0.328 | 0.384 | 0.434 | 0.5 | 0.554 | 0.637
in ethanol | 0.00915 | 0.0111 | 0.0138 | 0.0173 | 0.0218 | 0.0281 | 0.0366 | 0.0467
in ethyl acetate | 0.143 | 0.172 | 0.213 | 0.254 | 0.31 | 0.382 | 0.472 | 0.566
in isobutanol | 0.00604 | 0.00768 | 0.00962 | 0.0123 | 0.0163 | 0.0219 | 0.0306 | 0.0424
in isopropanol | 0.00588 | 0.00782 | 0.00957 | 0.0123 | 0.0163 | 0.022 | 0.0301 | 0.0423
in methanol | 0.00637 | 0.00811 | 0.00991 | 0.0124 | 0.0155 | 0.0204 | 0.027 | 0.0353
in methyl acetate | 0.135 | 0.172 | 0.21 | 0.26 | 0.32 | 0.406 | 0.487 | 0.59
in n-butanol | 0.0111 | 0.0138 | 0.0169 | 0.0214 | 0.0274 | 0.0359 | 0.0493 | 0.0679
in n-propanol | 0.0094 | 0.0118 | 0.0143 | 0.0176 | 0.0228 | 0.03 | 0.0409 | 0.058
